GI50 and TGI data for 19 compounds are collected here from PubChem BioAssay (NCI).

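Method: 48-hour compound exposure of cells in 96-well plates, five concentrations, linear interpolation of endpoints. GI50 = concentration required for 50% inhibition of growth. TGI denotes the concentration required for complete inhibition of growth.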

Test systems include SK-MEL-5 melanoma; LOX IMVI melanoma; RPMI-8226 leukemia; SF-268 CNS; 786-0 renal; OVCAR-3 ovarian; SK-MEL-28 melanoma; TK-10 renal; SR leukemia; HOP-62 NSCLC.
What all share (experiment): NCI anticancer screen, dose series, 48 h

With `CC1CCC(C#N)(NOC2=NCCN2)CC1` (configuration not stated), the GI50 in the assay on SK-MEL-5 melanoma is 38.6 µM; in the assay on LOX IMVI melanoma it was 5.33 µM; in the assay with RPMI-8226 leukemia, 40.4 µM; with SF-268 CNS it was 63.1 µM; in the assay on 786-0 renal, 16.3 µM; in the assay on OVCAR-3 ovarian, 28.9 µM. For the same compound, the GI50 with SK-MEL-28 melanoma is > 100 µM; in the assay with TK-10 renal it was 26.3 µM; with SR leukemia, 38.7 µM. Further, the TGI in the assay with SK-MEL-5 melanoma was > 100 µM; in the assay with LOX IMVI melanoma, 20.2 µM; in the assay with RPMI-8226 leukemia, > 100 µM; with SF-268 CNS, > 100 µM; with 786-0 renal, 37.1 µM; in the assay on OVCAR-3 ovarian, > 100 µM. Besides, the TGI with SK-MEL-28 melanoma, in the assay on TK-10 renal and in the assay with SR leukemia was > 100 µM in each case.

With `CN(Cc1ccccc1)c1nc(=[N+](C)C)ss1`, the TGI with SK-MEL-5 melanoma, in the assay with LOX IMVI melanoma, in the assay with RPMI-8226 leukemia, in the assay on SF-268 CNS, with 786-0 renal and in the assay with HOP-62 NSCLC was > 100 µM in each case. Further, the TGI in the assay with SK-MEL-28 melanoma, in the assay on TK-10 renal and in the assay with SR leukemia was > 100 µM throughout.

Consider `O=C(Cc1nc2ccccc2s1)C(=O)Nc1ccc(Cl)cc1Cl`, for which the TGI in the assay on LOX IMVI melanoma, in the assay with RPMI-8226 leukemia, with SF-268 CNS, in the assay with 786-0 renal, in the assay on HOP-62 NSCLC and with OVCAR-3 ovarian was > 100 µM each time. For the same compound, the TGI in the assay with SK-MEL-28 melanoma, with TK-10 renal and in the assay with SR leukemia was > 100 µM each time.

On to `COc1cc(CCC(=O)NS(=O)(=O)c2ccccc2)cc(OC)c1OC`, for which the TGI in the assay with LOX IMVI melanoma, with RPMI-8226 leukemia, in the assay with SF-268 CNS, with 786-0 renal, in the assay with HOP-62 NSCLC and in the assay on OVCAR-3 ovarian was > 100 µM throughout. The TGI with SK-MEL-28 melanoma, with TK-10 renal and with SR leukemia was > 100 µM in each case.

Consider `CCCCCCCCCCCCOC(=S)NC`, for which the TGI turned out to be 27.4 µM in the assay with LOX IMVI melanoma; 36.1 µM in the assay with RPMI-8226 leukemia; 36 µM with SF-268 CNS; 34.2 µM with 786-0 renal; 37.3 µM in the assay with HOP-62 NSCLC; 44 µM with SK-MEL-28 melanoma. In addition, the TGI with TK-10 renal worked out at 25.4 µM; in the assay with SR leukemia, 34.6 µM.

Turning to `Oc1cccc2nc3cc(CN4CCOCC4)c(CN4CCOCC4)cc3nc12`, the TGI with SK-MEL-5 melanoma is 55.3 µM; with LOX IMVI melanoma, > 100 µM; in the assay on SF-268 CNS, > 100 µM; with 786-0 renal, > 100 µM; with HOP-62 NSCLC, > 100 µM; in the assay with OVCAR-3 ovarian, > 100 µM. Further, the TGI in the assay with SK-MEL-28 melanoma, with TK-10 renal and in the assay with SR leukemia was > 100 µM each time.

For `Cc1[nH]ccc2cc3nc4ccccc4c3cc12`, the GI50 in the assay with SK-MEL-5 melanoma is 3.28 µM; with RPMI-8226 leukemia it was 1.53 µM; with SF-268 CNS, 2.97 µM; with 786-0 renal, 3.33 µM; with HOP-62 NSCLC, 2.79 µM; with OVCAR-3 ovarian it was 3.04 µM. The GI50 with SK-MEL-28 melanoma was 10.7 µM; in the assay on TK-10 renal, 4.47 µM; in the assay with SR leukemia it was 1.13 µM. The TGI was 13.6 µM in the assay with SK-MEL-5 melanoma; 3.87 µM in the assay on RPMI-8226 leukemia; 14.2 µM in the assay on SF-268 CNS; 13.8 µM in the assay with 786-0 renal; 12.8 µM in the assay on HOP-62 NSCLC; 10.7 µM in the assay with OVCAR-3 ovarian. Besides, the figures for the TGI in the assay with SK-MEL-28 melanoma, with TK-10 renal and with SR leukemia were 23.9 µM, 12.9 µM and 3.53 µM, respectively.

With `C[C@@]1(CBr)C[C@@](C)(/C=C/Cl)[C@@H](Cl)C[C@H]1Cl`, the TGI in the assay on SK-MEL-5 melanoma amounted to 26.1 µM; in the assay with LOX IMVI melanoma, 23.7 µM; in the assay on SF-268 CNS, 30.1 µM; in the assay on 786-0 renal, 27 µM; with HOP-62 NSCLC it was 27.5 µM; in the assay on OVCAR-3 ovarian, 22.8 µM. For the same compound, the results for the TGI with SK-MEL-28 melanoma, with TK-10 renal and in the assay with SR leukemia were 31.3 µM, 28.7 µM and 16.9 µM, respectively.

`Cn1c(=O)c2[nH]cnc2n(CC(=O)O)c1=O`: the TGI in the assay on SK-MEL-5 melanoma, in the assay on RPMI-8226 leukemia, with SF-268 CNS, with 786-0 renal, in the assay on HOP-62 NSCLC and in the assay with OVCAR-3 ovarian was > 100 µM each time. The TGI with SK-MEL-28 melanoma, with TK-10 renal and in the assay with SR leukemia was > 100 µM in each case.

Take `COC(=O)C(C(=O)C(=O)Nc1ccc(C)cc1C)c1nc2ccc([N+](=O)[O-])cc2[nH]c1=O` (configuration not stated): the TGI in the assay with SK-MEL-5 melanoma, in the assay with LOX IMVI melanoma, in the assay on RPMI-8226 leukemia, with SF-268 CNS, in the assay with 786-0 renal and in the assay with HOP-62 NSCLC was > 100 µM in each case. Also, the TGI in the assay with SK-MEL-28 melanoma, in the assay on TK-10 renal and with SR leukemia was > 100 µM throughout.

As for `CCCCCCCCCCC(CN(CC)CC)C(O)c1ccccc1` (configuration not stated), the GI50 in the assay on SK-MEL-5 melanoma is 1.48 µM; in the assay on LOX IMVI melanoma, 1.75 µM; in the assay on RPMI-8226 leukemia, 2.05 µM; in the assay on SF-268 CNS, 1.94 µM; in the assay with 786-0 renal it was 1.67 µM; in the assay on OVCAR-3 ovarian, 1.99 µM. Moreover, the GI50 in the assay on SK-MEL-28 melanoma was 1.7 µM; in the assay with TK-10 renal it was 1.65 µM; in the assay on SR leukemia, 2.44 µM. The TGI in the assay on SK-MEL-5 melanoma came to 2.88 µM; in the assay with LOX IMVI melanoma, 3.19 µM; in the assay on RPMI-8226 leukemia it was 4.88 µM; in the assay on SF-268 CNS it was 3.87 µM; with 786-0 renal, 3.15 µM; in the assay with OVCAR-3 ovarian, 3.78 µM. The TGI in the assay with SK-MEL-28 melanoma was found to be 3.16 µM; in the assay on TK-10 renal it was 3.22 µM; with SR leukemia, 6.23 µM.

Regarding `NCCCn1c2c(c3ccc([N+](=O)[O-])cc3c1=O)C(=O)c1cc(Cl)ccc1-2`, the GI50 in the assay with SK-MEL-5 melanoma is < 0.0151 µM; with LOX IMVI melanoma, < 0.01 µM; in the assay with RPMI-8226 leukemia it was < 0.01 µM; in the assay on SF-268 CNS it was < 0.01 µM; in the assay with 786-0 renal, < 0.01 µM; in the assay with HOP-62 NSCLC, < 0.01 µM. The values for the GI50 with SK-MEL-28 melanoma, with TK-10 renal and with SR leukemia were 0.126 µM, 0.379 µM and < 0.01 µM, respectively. Further, the TGI with SK-MEL-5 melanoma came to 0.25 µM; with LOX IMVI melanoma, 0.117 µM; with RPMI-8226 leukemia it was 0.0367 µM; with SF-268 CNS it was 0.391 µM; in the assay on 786-0 renal it was 0.0369 µM; in the assay with HOP-62 NSCLC, 0.123 µM. Further, the TGI was found to be 1.67 µM in the assay with SK-MEL-28 melanoma, 0.811 µM with TK-10 renal and 0.0325 µM with SR leukemia.

Turning to `CC1(C)CC(O)CCCCCCOc2c(CN)cccc2NC(=O)c2nc(cnc2N)-c2ccc(cc2)S1(=O)=O` (configuration not stated), the GI50 in the assay on SK-MEL-5 melanoma was 1.5 µM; in the assay with LOX IMVI melanoma, 1.26 µM; in the assay on SF-268 CNS it was 1.27 µM; in the assay on 786-0 renal, 0.0278 µM; in the assay on HOP-62 NSCLC, 1.41 µM; in the assay with OVCAR-3 ovarian, 0.183 µM. For the same compound, the figures for the GI50 with SK-MEL-28 melanoma, in the assay with TK-10 renal and with SR leukemia were 1.13 µM, 1.52 µM and < 0.01 µM, respectively. The TGI was found to be 2.89 µM with SK-MEL-5 melanoma; 2.88 µM in the assay with LOX IMVI melanoma; 3.44 µM in the assay with SF-268 CNS; 1.97 µM with 786-0 renal; 3.75 µM with HOP-62 NSCLC; 3.34 µM in the assay on OVCAR-3 ovarian. Besides, the TGI with SK-MEL-28 melanoma is 2.48 µM; in the assay with TK-10 renal, 3.86 µM; in the assay with SR leukemia, 0.469 µM.

Take `CN(/C(=N\O)c1ccccc1)c1ccccc1`: the TGI in the assay with LOX IMVI melanoma was 75.7 µM; in the assay with SF-268 CNS it was 97 µM; with 786-0 renal, 89 µM; with HOP-62 NSCLC it was 58.8 µM; with OVCAR-3 ovarian, 59.2 µM; in the assay on SR leukemia, 75.4 µM.

On to `CCCCCC/C=C/CCCCCCCc1cccc(O)c1C(=O)O`, for which the TGI with LOX IMVI melanoma, in the assay with RPMI-8226 leukemia, with SF-268 CNS, in the assay with 786-0 renal, with HOP-62 NSCLC and with OVCAR-3 ovarian was > 100 µM each time. The TGI in the assay on SK-MEL-28 melanoma, with TK-10 renal and with SR leukemia was > 100 µM throughout.

As for `Oc1oc(-c2ccccc2)nc1/C=C1/C=NN=N1`, the TGI in the assay on LOX IMVI melanoma, in the assay on RPMI-8226 leukemia, in the assay with SF-268 CNS, in the assay on 786-0 renal, in the assay on HOP-62 NSCLC and with OVCAR-3 ovarian was > 100 µM throughout. Also, the TGI in the assay on SK-MEL-28 melanoma, in the assay on TK-10 renal and in the assay with SR leukemia was > 100 µM in each case.

`CC(=O)NNc1nc(C)c(C(/C=C/c2ccc(Cl)cc2)=N/NC(=S)NN)s1`: the TGI in the assay on SK-MEL-5 melanoma, in the assay with LOX IMVI melanoma, with RPMI-8226 leukemia, with SF-268 CNS, in the assay on 786-0 renal and in the assay on HOP-62 NSCLC was > 100 µM in each case. The TGI with SK-MEL-28 melanoma, in the assay on TK-10 renal and in the assay on SR leukemia was > 100 µM each time.

As to `O=C(Cc1ccccc1)NN1C(=O)C(Cl)C1c1ccccc1` (configuration not stated), the TGI was > 100 µM in the assay on SK-MEL-5 melanoma; 52.8 µM in the assay on RPMI-8226 leukemia; > 100 µM with SF-268 CNS; > 100 µM in the assay with 786-0 renal; > 100 µM in the assay with HOP-62 NSCLC; > 100 µM with OVCAR-3 ovarian. The results for the TGI in the assay with SK-MEL-28 melanoma, in the assay with TK-10 renal and in the assay on SR leukemia were > 100 µM, > 100 µM and 55.3 µM, respectively.

For the compound `CCOC(CN(C)C(=O)OCC(Cl)(Cl)Cl)OCC`, the TGI in the assay on SK-MEL-5 melanoma, with LOX IMVI melanoma, in the assay with SF-268 CNS, in the assay with 786-0 renal, with HOP-62 NSCLC and with OVCAR-3 ovarian was > 100 µM throughout. Further, the TGI in the assay with SK-MEL-28 melanoma, with TK-10 renal and with SR leukemia was > 100 µM in each case.
